System: hPSCs
Assay: RT-qPCR of pluripotency and germ-layer markers during differentiation with CPP-peptides (Supplementary Fig. 7b-e)
Type: cell-based, human
Details: for BMP2 mRNA level (RT-qPCR) / BMP4 mRNA level (RT-qPCR) / CDH2 mRNA level (RT-qPCR) / CXCR4 mRNA level (RT-qPCR) / SNAI1 mRNA level (RT-qPCR) / TBXT mRNA level (RT-qPCR): Fig. s7d
Experimental: For CPP-conjugated peptide delivery, HeLa, 293T, and PA-1 cells were incubated with CPP-conjugated peptides or CPP-FITC at 2 μM in DMEM with 10% FBS for 12 h a day before cell harvest. hPSCs were treated with CPP-conjugated peptides at 10 μM in mTeSR Plus Medium, and the peptide-containing medium was changed every day over 10 days. The ROCK inhibitor (Tocris Bioscience, Y-27632) treated-hPSCs were dissociated into single cells using Accutase (Merck, SCR005) and differentiated into ectoderm, mesoderm, and endoderm using the STEMdiff Trilineage Differentiation Kit ([…] Technologies, 05230) following the manufacturer’s protocol. Differentiated cells treated with CPP-conjugated peptides were analysed at 0, 3, and 5 days for ectoderm and endoderm, and at 0, 3, and 4 days for mesoderm. […]
cDNA was synthesised using RevertAid Reverse Transcriptase (Thermo Fisher Scientific, EP0441) with synthesised random hexamer (Macrogen) for total RNA or stem-loop primers for miRNA. For RT-qPCR reactions, the SensiFAST SYBR No-ROX kit (Meridian Bioscience) was used according to the manufacturer’s protocol. All data analysis and visualisation were conducted using R 3.6.1 [www.r-project.org] or GraphPad Prism 10. RT primers for miRNA and RT-qPCR primer sequences are provided in Supplementary Data 6. […]
FPKM of each gene was presented f r om RNA-seq analysis. b–e hPSCs wer e treated with the indicated peptide during each germ la ye r differentiation. […]
An unpaired Student’s t-test was used for a–e. Data are presented as mean values ± SEM. All statistical test us ed wer e two-s ided. T he m inim um number of independent biological replicate experim ents was a–f n = 3. T he experiments wer e conducted three tim es, each iteration producing consistent results.

N-QKLDQKELQLEPM-C [P1, reference compound]
CXCR4 (RT-qPCR) (Day 0, replicate 1, Fig. s7e): 1.088 | CXCR4 (RT-qPCR) (Day 0, replicate 2, Fig. s7e): 0.7848 | CXCR4 (RT-qPCR) (Day 0, replicate 3, Fig. s7e): 1.127 | CXCR4 (RT-qPCR) (Day 3, replicate 1, Fig. s7e): 801.652 | CXCR4 (RT-qPCR) (Day 3, replicate 2, Fig. s7e): 485.59 | CXCR4 (RT-qPCR) (Day 3, replicate 3, Fig. s7e): 555.318 | CXCR4 (RT-qPCR) (Day 5, replicate 1, Fig. s7e): 1042.02 | CXCR4 (RT-qPCR) (Day 5, replicate 2, Fig. s7e): 799.656 | CXCR4 (RT-qPCR) (Day 5, replicate 3, Fig. s7e): 801.596 | Mean CXCR4 (RT-qPCR) (CXCR4 day 3, mean of n = 3, Fig. s7e): 614.2 | Mean CXCR4 (RT-qPCR) (CXCR4 day 5, mean of n = 3, Fig. s7e): 881.1 | FOXA1 (RT-qPCR) (Day 0, replicate 1, Fig. s7e): 1.247 | FOXA1 (RT-qPCR) (Day 0, replicate 2, Fig. s7e): 1.413 | FOXA1 (RT-qPCR) (Day 0, replicate 3, Fig. s7e): 0.3396 | FOXA1 (RT-qPCR) (Day 3, replicate 1, Fig. s7e): 110.429 | FOXA1 (RT-qPCR) (Day 3, replicate 2, Fig. s7e): 100.761 | FOXA1 (RT-qPCR) (Day 3, replicate 3, Fig. s7e): 171.159 | FOXA1 (RT-qPCR) (Day 5, replicate 1, Fig. s7e): 247.532 | FOXA1 (RT-qPCR) (Day 5, replicate 2, Fig. s7e): 297.277 | FOXA1 (RT-qPCR) (Day 5, replicate 3, Fig. s7e): 395.679 | Mean FOXA1 (RT-qPCR) (FOXA1 day 5, mean of n = 3, Fig. s7e): 313.5 | SOX2 mRNA level (RT-qPCR), mean (Fig. s7b, mesoderm, day 4, mean of 3 replicates): 0.001971 | BMP2 mRNA level (RT-qPCR) (Day 0, replicate 1): 0.8054 | BMP4 mRNA level (RT-qPCR) (Day 0, replicate 1): 1.545 | CDH2 mRNA level (RT-qPCR) (Day 0, replicate 1): 1.016 | CXCR4 mRNA level (RT-qPCR) (Day 0, replicate 1): 0.9995 | SNAI1 mRNA level (RT-qPCR) (Day 0, replicate 1): 1.4406 | TBXT mRNA level (RT-qPCR) (Day 0, replicate 1): 1.3 | BMP2 mRNA level (RT-qPCR) (Day 0, replicate 2): 1.199 | BMP4 mRNA level (RT-qPCR) (Day 0, replicate 2): 0.6508 | CDH2 mRNA level (RT-qPCR) (Day 0, replicate 2): 0.7569 | CXCR4 mRNA level (RT-qPCR) (Day 0, replicate 2): 1.121 | SNAI1 mRNA level (RT-qPCR) (Day 0, replicate 2): 0.9418 | TBXT mRNA level (RT-qPCR) (Day 0, replicate 2): 0.8652 | BMP2 mRNA level (RT-qPCR) (Day 0, replicate 3): 0.9954 | BMP4 mRNA level (RT-qPCR) (Day 0, replicate 3): 0.8046 | CDH2 mRNA level (RT-qPCR) (Day 0, replicate 3): 1.227 | CXCR4 mRNA level (RT-qPCR) (Day 0, replicate 3): 0.8798 | SNAI1 mRNA level (RT-qPCR) (Day 0, replicate 3): 0.6176 | TBXT mRNA level (RT-qPCR) (Day 0, replicate 3): 0.8351 | BMP2 mRNA level (RT-qPCR) (Day 3, replicate 1): 1.069 | BMP4 mRNA level (RT-qPCR) (Day 3, replicate 1): 26.604 | CDH2 mRNA level (RT-qPCR) (Day 3, replicate 1): 19.4651 | CXCR4 mRNA level (RT-qPCR) (Day 3, replicate 1): 690.154 | SNAI1 mRNA level (RT-qPCR) (Day 3, replicate 1): 17.0238 | TBXT mRNA level (RT-qPCR) (Day 3, replicate 1): 6332.26 | BMP2 mRNA level (RT-qPCR) (Day 3, replicate 2): 1.012 | BMP4 mRNA level (RT-qPCR) (Day 3, replicate 2): 28.0652 | CDH2 mRNA level (RT-qPCR) (Day 3, replicate 2): 19.9537 | CXCR4 mRNA level (RT-qPCR) (Day 3, replicate 2): 760.409 | SNAI1 mRNA level (RT-qPCR) (Day 3, replicate 2): 25.1744
